Reference: patent US5612217A, “Streptomyces sp. MA 7074 (ATCC 55605) used for microbial synthesis of HIV protease inhibitors” (Merck & Co., Inc., priority 1994, dated 1997)

Molecular target: T1, HIV protease (Human immunodeficiency virus type 1 group M subtype B, UniProt P03366)
T1 construct: the protease expressed in Eschericia coli; made in house; host or cells: Escherichia coli
Assay: Assay for inhibition of microbial expressed HIV protease (in vitro, peptide substrate cleavage, HPLC)
Type: biochemical
Conditions: for % Potency Relative to Compound J, Based on HPLC / % Potency Relative to Compound J, Based On Nominal Wt.: IC50 of Compound J / IC50 of test compound x 100; for % Potency Relative to Compound J, Based on HPLC: concentration checked by HPLC using J as standard; for % Potency Relative to Compound J, Based On Nominal Wt.: dilution based on nominal weight
Procedure: Inhibition studies of the reaction of the protease expressed in Eschericia coli with a peptide substrate [Val-Ser-Gln-Asn-(betanapthyl)Ala-Pro-Ile-Val, 0.5 mg/mL at the time the reaction is initiated] were in 50 mM Na acetate, pH 5.5, at 30° C. for 1 hour. Various concentrations of inhibitor in 1.0 μl DMSO were added to 25 μl of the peptide solution in water. The reaction is initiated by the addition of 15 μl of 0.33 nM protease (0.11 ng) in a solution of 0.133M Na acetate pH 5.5 and 0.1% bovine serum albumin. The reaction was quenched with 160 μl of 5% phosphoric acid. Products of the reaction were separated by HPLC (VYDAC wide pore 5 cm C-18 reverse phase, acetonitrile gradient, 0.1% phosphoric acid). The extent of inhibition of the reaction was determined as IC50 from the peak heights of the products.
Seven Compound J bioconversion products were assayed for in vitro HIV protease inhibitory by the assay for inhibition of microbial expressed HIV Protease, protocol given above. Two of the bioconversion products were isolated from MA7074 incubations, Compounds B1 and F. The IC50 of the parent Compound J was divided by the IC50 of each test compound and multiplied by 100 in order to calculate the percent potency of each compound relative to J.
In some cases, the dilution of the test compound was based on nominal weight. In other cases, especially when the weight was less than 250 μg, the concentration was checked by HPLC using J as standard.

Row | Structure (SMILES) | % Potency Relative to Compound J, Based on HPLC [%] | % Potency Relative to Compound J, Based On Nominal Wt. [%] | HIV-protease activity (in words) (qualitative statement, compared with Compound J where stated)
1 | CC(C)(C)NC(=O)[C@@H]1CN(Cc2cccnc2)CCN1C[C@@H](O)C[C@@H](Cc1ccc(O)cc1)C(=O)N[C@H]1c2ccccc2C[C@H]1O [D] | 31 | 3.1 | 
2 | CC(C)(C)NC(=O)[C@@H]1CN(Cc2cccnc2)CCN1C[C@@H](O)C[C@@H](Cc1ccccc1)C(=O)N[C@H]1c2ccccc2[C@@H](O)[C@H]1O [Compound B1] | 115 |  | 
3 | CC(C)(C)NC(=O)[C@@H]1CN(Cc2cccnc2)CCN1C[C@@H](O)C[C@@H](Cc1ccccc1)C(=O)N[C@H]1c2ccccc2C(=O)[C@H]1O [Compound F] |  | 16 | less HIV-protease activity than Compound J
4 | CC(C)(C)NC(=O)[C@@H]1CN(Cc2cccnc2)CCN1C[C@@H](O)C[C@@H](Cc1ccccc1)C(=O)N[C@H]1c2ccccc2[C@H](O)[C@H]1O [A] |  | 27 | 
5 | CC(C)(C)NC(=O)[C@@H]1CN(Cc2ccc[n+]([O-])c2)CCN1C[C@@H](O)C[C@@H](Cc1ccccc1)C(=O)N[C@H]1c2ccccc2C[C@H]1O [E] |  | 34 | 
